Several values for one entry are separate records, joined by “and”; a condition that tells them apart may be missing. Equal values may be shown once. Activity calls are given as the source filed them. The rule behind the calls is not given here.

This is an account of results in PubChem BioAssay AID2745 (NMMLSC, 2010).

This assay can be described thus: LAP4-GFP modulation potency in yeast, dose response, cell-based, MLPCN hits, flow cytometry (AID 2745).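 Note: yeast exposed to compound for three hours at 30 degrees.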 As to conditions: S. cerevisiae LAP4-GFP reporter, flow cytometry fluorescence; at 33 µM (top of the series). On the technique in general: A flow cytometer gives signals particle by particle.

As for `O=S(=O)(/N=C(\Sc1ccc(Cl)cc1)c1ccccc1)c1ccccc1`, the LAP4-GFP fluorescence (kMESF) was 12.4 kMESF (inactive). To `COc1ccc(C(=O)/C=C2/C(=O)Nc3ccccc32)cc1OC` belongs 4.19 kMESF (inactive).

Take `Cc1ccccc1OCCOC(=O)c1ccc(S(=O)(=O)N2CCCC2)cc1`: the LAP4-GFP fluorescence (kMESF) is 3.13 kMESF (inactive). Consider `CCN(CC(=O)Nc1cc(S(=O)(=O)N2CCOCC2)ccc1Cl)Cc1ccccc1`, for which the LAP4-GFP fluorescence (kMESF) was 3.97 kMESF (inactive). To `Cc1sc(/C=C2\C(=O)ON=C2c2ccccc2)cc1Br` belongs 2.73 kMESF (inactive); to `N/C(Cc1ccc(Cl)cc1Cl)=N\OC(=O)c1ccccc1`, 9.94 kMESF (inactive); to `Cc1ccc(N2C(=O)CC(Sc3ncn[nH]3)C2=O)cc1C` (stereo not drawn), 7.56 kMESF (inactive). With `O=C(/C=C/c1ccnc2ccccc12)c1cccs1`, the LAP4-GFP fluorescence (kMESF) is 11.4 kMESF (inactive).

Regarding `Cc1cccc(N=C2NC(=O)/C(=C/C=C/c3ccco3)S2)c1C`, the LAP4-GFP fluorescence (kMESF) was 13.7 kMESF (inactive). The same measure for `CCCCC1OC23CCCCC2C(C#N)(C(=N)O3)C1(C#N)C#N` (stereo not drawn): 3.98 kMESF (inactive); for `Cc1cc(C)c2c(c1)/C(=C/C(=O)c1ccc(Br)s1)C(=O)N2`: 6.56 kMESF (inactive); for `CCOC(=O)C(C(=O)OCC)C(C(=O)OCC)N1CCOCC1` (stereo not drawn): 6.39 kMESF (inactive). For `Fc1cccc(Nc2ncnc3c2cnn3-c2ccccc2)c1`, the LAP4-GFP fluorescence (kMESF) was 5.86 kMESF (inactive). In the case of `COc1cccc(/C=C2\SC(=S)N(CCCC(=O)Nc3ccc(C(=O)O)cc3)C2=O)c1`, the LAP4-GFP fluorescence (kMESF) was 3.71 kMESF (inactive). With `O=C(Cc1ccc(Cl)cc1)NNC(=S)NC(=O)c1cccs1`, the LAP4-GFP fluorescence (kMESF) was 9.52 kMESF (inactive).

With `COc1cc(C=C2C(=O)c3ccccc3C2=O)cc(OC)c1`, the LAP4-GFP fluorescence (kMESF) was 4.28 kMESF (inactive). For the compound `CC(C)(C)C1C/C(=C/c2ccccn2)C(=O)/C(=C/c2ccccn2)C1` (stereo not drawn), the LAP4-GFP fluorescence (kMESF) was 4.25 kMESF (inactive). For the compound `Cc1ccc(S(=O)(=O)Cc2cc(F)c([N+](=O)[O-])cc2[N+](=O)[O-])cc1`, the LAP4-GFP fluorescence (kMESF) was 1.59 kMESF (inactive). The same measure for `O=C(NNC(=S)NC(=O)C12CC3CC(CC(C3)C1)C2)c1ccncc1`: 15.7 kMESF (inactive). The same measure for `CCc1ccc(/C=C/C(=O)c2cc(Br)ccc(=O)c2O)cc1`: 9 kMESF (inactive); for `CC(=O)N(\C=C/C=C/C=C1\Sc2ccccc2C1=O)c1ccccc1`: 14.2 kMESF (inactive); for `O=C(NNC(=S)NC(=O)c1ccco1)c1ccc(F)cc1`: 5.61 kMESF (inactive). The same measure for `Cc1cc(NC(c2ccc(Cl)cc2)c2ccc3cccnc3c2O)no1` (stereo not drawn): 11.2 kMESF (inactive). Turning to `CS(=O)(=O)c1sc(C#N)c2c1C(=O)CC(c1ccccc1)C2` (stereo not drawn), the LAP4-GFP fluorescence (kMESF) is 14.6 kMESF (inactive).

For the compound `CCCCNc1c2c3c(cccc3n(C)c1=O)C(=O)c1ccccc1-2`, the LAP4-GFP fluorescence (kMESF) is 11.2 kMESF (inactive). Turning to `CCCCCn1c(=O)c(C(=O)Nc2nc3ccccc3[nH]2)c(O)c2ccccc21`, the LAP4-GFP fluorescence (kMESF) is 2.43 kMESF (inactive).

Consider `O=C(O)C1Sc2[nH]c(=O)sc2C2c3cc(Br)ccc3OC(=O)C12` (stereo not drawn), for which the LAP4-GFP fluorescence (kMESF) is 5.82 kMESF (inactive).

Take `COc1cc(NC(=O)c2cccc(C)c2)ccc1NC(=O)c1cc2ccccc2o1`: the LAP4-GFP fluorescence (kMESF) is 3.31 kMESF (inactive).

Regarding `CS(=O)(=O)c1nc(-c2ccccc2)cc(C(F)(F)F)n1`, the LAP4-GFP fluorescence (kMESF) is 16.6 kMESF (inactive).

For `CC(=O)Oc1oc(-c2ccccc2)nc1C=Nc1ccccc1`, the LAP4-GFP fluorescence (kMESF) was 8.16 kMESF (inactive). In the case of `C#CCOCCOCCOCCNc1nc(N2CCN(C(=O)CCCCCCCCCCNC(=O)[C@@H](CCC(=O)O)n3cc(CCCCCN)nn3)CC2)nc(N2CCN(C(=O)CCCCCCCCCCNC(=O)[C@H](CCCCN)n3cc(C[C@@H](C)CC)nn3)CC2)n1`, the LAP4-GFP fluorescence (kMESF) was 6.47 kMESF (inactive).

Consider `O=C(Oc1c(Cl)cc(Cl)c2cccnc12)c1cccs1`, for which the LAP4-GFP fluorescence (kMESF) was 13.8 kMESF (inactive). `Cn1ncc2c(O/N=C(\N)c3ccc(C(C)(C)C)cc3)ncnc21`: the LAP4-GFP fluorescence (kMESF) was 5.61 kMESF (inactive). Turning to `O=[N+]([O-])c1ccc(-c2cn3nc(-c4ccccc4)c(-c4ccccc4)nc3n2)cc1`, the LAP4-GFP fluorescence (kMESF) is 9.37 kMESF (inactive). To `C[C@H]1C[C@@H](C)C(=O)[C@@H]([C@H](O)CC2CC(=O)NC(=O)C2)C1` belongs 7.12 kMESF (inactive); to `CCN1/C(=C/c2ccc3cc(C)ccc3[n+]2CC)Sc2ccc3sccc3c21`, 10.7 kMESF (inactive). On to `O=C(O)c1ccn2c(C(=O)c3ccccc3)c(-c3ccccc3)cc2c1`, for which the LAP4-GFP fluorescence (kMESF) is 7.25 kMESF (inactive).

`O=C(Nc1ccc(O)cc1)C1CCCN1S(=O)(=O)c1ccc(F)cc1` (stereo not drawn): the LAP4-GFP fluorescence (kMESF) is 3.13 kMESF (inactive).

Regarding `COc1cc(N=c2ssnc2Cl)c(OC)cc1Cl`, the LAP4-GFP fluorescence (kMESF) was 13.4 kMESF (inactive) and 13.8 kMESF (inactive). In the case of `O=C(C#Cc1cccc([N+](=O)[O-])c1)c1ccccc1`, the LAP4-GFP fluorescence (kMESF) was 8.01 kMESF (inactive). To `Oc1ccc(CNc2ccccc2)c2cccnc12` belongs 3.88 kMESF (inactive); to `O=[N+]([O-])c1cc(CN2CCN(c3ccccc3)CC2)c(O)c2ncccc12`, 14.7 kMESF (inactive); to `CC(Oc1ccc2ccccc2c1)C(=O)NNC(=S)NC(=O)c1ccco1` (stereo not drawn), 13.9 kMESF (inactive). To `Oc1c(CN2CCN(c3ccccc3)CC2)cc(Br)c2cccnc12` belongs 20.9 kMESF (inactive); to `O=C(/C=C/c1ccccc1[N+](=O)[O-])c1ccccc1Br`, 15.6 kMESF (inactive); to `Cc1ccccc1OCC(=O)NNC(=S)NC(=O)c1ccco1`, 6.11 kMESF (inactive). As for `C#CCOc1c(Br)cc(/C=C2/C(=O)ON=C2C)cc1OC`, the LAP4-GFP fluorescence (kMESF) is 12.2 kMESF (inactive).

Take `O=C(Nc1nnc(-c2ccc(F)cc2)o1)c1cc(Cl)sc1Cl`: the LAP4-GFP fluorescence (kMESF) was 6.71 kMESF (inactive). Regarding `CN1C(=O)/C(=N\OC(=O)c2cccc3ccccc23)c2ccccc21`, the LAP4-GFP fluorescence (kMESF) was 7.11 kMESF (inactive). Turning to `CC(C)[C@]1(c2ccc(Cl)cc2)ON(c2ccccc2C(F)(F)F)C1=O`, the LAP4-GFP fluorescence (kMESF) was 3.43 kMESF (inactive). Consider `COc1ccc(C2(C)ON(c3ccccc3C(F)(F)F)C2=O)cc1` (stereo not drawn), for which the LAP4-GFP fluorescence (kMESF) is 6.61 kMESF (inactive). Consider `Oc1ccc2ccccc2c1/C=N/Nc1nnc(-c2ncc[nH]2)c2ccccc12`, for which the LAP4-GFP fluorescence (kMESF) is -7.45 kMESF (inactive). Consider `O=C(NC(=S)Nc1ccc2oc(=O)ccc2c1)c1cccc(Cl)c1`, for which the LAP4-GFP fluorescence (kMESF) was 3.47 kMESF (inactive).

Turning to `[O-][n+]1cccc2c(Br)cc(Br)c(O)c21`, the LAP4-GFP fluorescence (kMESF) was 12.9 kMESF (inactive). Take `O=C1C(Cl)=C(Nc2ccccc2O)C(=O)N1c1ccccc1`: the LAP4-GFP fluorescence (kMESF) is 4.81 kMESF (inactive). On to `O=c1c2sc(-c3ccccc3)cc2nc2n1CCC2`, for which the LAP4-GFP fluorescence (kMESF) was 5.96 kMESF (inactive). Consider `C[C@@H]1C[C@@H]([C@H](O)CC2CC(=O)NC(=O)C2)C(=O)[C@@H](C)C1`, for which the LAP4-GFP fluorescence (kMESF) is 6.31 kMESF (inactive).

With `CCN(CC)C(=S)SSC(=S)N(CC)CC`, the LAP4-GFP fluorescence (kMESF) is 20.4 kMESF (inactive).

Regarding `CN(C)c1ccc(/C=C/c2cc[n+](C)cc2)cc1`, the LAP4-GFP fluorescence (kMESF) was 1.33 kMESF (inactive). On to `O=c1oc(/C=C/c2ccc([N+](=O)[O-])s2)nc2ccccc12`, for which the LAP4-GFP fluorescence (kMESF) was 12.6 kMESF (inactive). For the compound `O=C(Nc1ccc(N2CCOCC2)cc1)C1CCN(S(=O)(=O)c2ccc3c(c2)OCCO3)CC1`, the LAP4-GFP fluorescence (kMESF) was 3.78 kMESF (inactive). To `COc1ccc2c(c1)S/C(=C\C(=O)c1ccncc1)N2C` belongs 4.85 kMESF (inactive); to `C=CCn1c(C)c(/C=C/c2cc[n+](C)cc2)c2ccccc21`, 10.8 kMESF (inactive); to `COCCN1C(=O)/C(=C/c2ccc(N3CCCC3)cc2C)SC1=S`, 7.02 kMESF (inactive). Take `O=C(OCC(=O)N1CCN(C(=O)c2ccco2)CC1)c1cc(-c2ccc(F)cc2)nc2ccccc12`: the LAP4-GFP fluorescence (kMESF) was 9.57 kMESF (inactive) and 4.75 kMESF (inactive).

In the case of `N#Cc1c2ccc([N+](=O)[O-])cc2[n+]([O-])n1-c1ccccc1`, the LAP4-GFP fluorescence (kMESF) was 4.85 kMESF (inactive). Consider `C=CCN1C(=O)/C(=C/c2cccs2)C(=O)NC1=S`, for which the LAP4-GFP fluorescence (kMESF) was 4.47 kMESF (inactive). Turning to `CCOC(=O)CS(=O)(=O)c1nc(-c2ccccc2)cc(C(F)(F)F)n1`, the LAP4-GFP fluorescence (kMESF) was 19.9 kMESF (inactive). The same measure for `O=C(c1ccccn1)c1conc1C(=O)c1ccc(Br)cc1`: 9.07 kMESF (inactive); for `O=C(O)c1ccc2c(c1)C(=O)/C(=C/c1ccccc1)C2=O`: 3.53 kMESF (inactive). As to `O=C1C(Cl)=C(NCCc2ccccc2)C(=O)N1CCc1ccccc1`, the LAP4-GFP fluorescence (kMESF) is 5.91 kMESF (inactive). The same measure for `CC(C)Cn1c(=O)c(C(=O)Nc2ccncc2)c(O)c2ccccc21`: 2.36 kMESF (inactive); for `Cc1cc2ccccn2c1C(=O)c1ccc([N+](=O)[O-])o1`: -3.89 kMESF (inactive).

Turning to `Cc1cc(=O)n2c3c(sc2n1)C(=O)N(Cc1ccccc1)C3=O`, the LAP4-GFP fluorescence (kMESF) was 9.31 kMESF (inactive).

Turning to `Oc1c(C(Nc2nc3ccccc3s2)c2ccco2)ccc2cccnc12` (stereo not drawn), the LAP4-GFP fluorescence (kMESF) is 24.1 kMESF (inactive).

As for `O=C(NC(=S)NNC(=O)[C@H]1C[C@@H]1c1ccccc1)c1cccc(F)c1`, the LAP4-GFP fluorescence (kMESF) was 17.8 kMESF (inactive). In the case of `O=S(=O)(c1ccccc1)c1ccc(C(F)(F)F)cn1`, the LAP4-GFP fluorescence (kMESF) is 4.29 kMESF (inactive). For the compound `Oc1c(C(Nc2cccc(C(F)(F)F)c2)c2ccncc2)ccc2cccnc12` (stereo not drawn), the LAP4-GFP fluorescence (kMESF) is 11.8 kMESF (inactive).
